According to ChEMBL document CHEMBL1132250, “Synthesis of classical and a nonclassical 2-amino-4-oxo-6-methyl-5-substituted pyrrolo[2,3-d]pyrimidine antifolate inhibitors of thymidylate synthase” (J Med Chem, 1999):

How the values were obtained:
Thymidylate synthase [1] = target: T1, Thymidylate synthase (Lactobacillus casei, UniProt P00469); assay: Compound was evaluated for the inhibition at a given concentration against Lactobacillus casei Thymidylate synthase; set-up: species or system Lacticaseibacillus casei
T1 sequence (P00469 whole entry): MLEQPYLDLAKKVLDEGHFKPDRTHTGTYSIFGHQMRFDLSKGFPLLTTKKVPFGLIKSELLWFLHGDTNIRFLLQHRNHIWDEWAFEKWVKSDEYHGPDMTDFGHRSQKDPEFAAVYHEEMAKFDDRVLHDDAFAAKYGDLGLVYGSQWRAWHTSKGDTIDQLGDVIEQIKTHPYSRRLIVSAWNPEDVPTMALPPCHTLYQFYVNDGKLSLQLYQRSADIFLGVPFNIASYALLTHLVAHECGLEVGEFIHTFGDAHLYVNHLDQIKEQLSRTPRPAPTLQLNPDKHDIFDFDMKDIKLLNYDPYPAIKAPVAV

Thymidylate synthase [2] = target: T2, Thymidylate synthase (Homo sapiens, UniProt P04818); assay: Compound was evaluated for the inhibition at a given concentration against recombinant human Thymidylate synthase
Thymidylate synthase [3] = target: T2, Thymidylate synthase; assay: Compound was evaluated for the inhibition at a given concentration against recombinant human TS
Thymidylate synthase [4] = target: T1, Thymidylate synthase; assay: Compound was evaluated for the inhibition at a given concentration against Lactobacillus casei TS; set-up: species or system Lacticaseibacillus casei

T2 sequence (P04818 whole entry): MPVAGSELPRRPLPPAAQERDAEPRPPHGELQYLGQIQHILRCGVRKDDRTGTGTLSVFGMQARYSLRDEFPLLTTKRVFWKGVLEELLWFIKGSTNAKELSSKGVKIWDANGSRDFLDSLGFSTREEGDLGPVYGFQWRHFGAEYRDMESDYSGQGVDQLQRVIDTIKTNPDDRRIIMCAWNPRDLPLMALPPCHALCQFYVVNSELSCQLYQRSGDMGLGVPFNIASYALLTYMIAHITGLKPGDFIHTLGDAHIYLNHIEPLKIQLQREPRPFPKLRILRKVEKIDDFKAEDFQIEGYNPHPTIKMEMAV

| IC50 (Thymidylate synthase [1]) | IC50 (Thymidylate synthase [2]) | IC50 (Thymidylate synthase [3]) | IC50 (Thymidylate synthase [4]) | Structure (SMILES) |
| --- | --- | --- | --- | --- |
| > 26 µM | > 25 µM | – | – | Cc1[nH]c2nc(N)nc(O)c2c1CSc1ccncc1 |
| 360 µM | – | – | – | Cc1[nH]c2nc(N)[nH]c(=O)c2c1CNCc1ccc(C(=O)N[C@H](CCC(=O)O)C(=O)O)cc1 |
| 90 µM | – | – | – | C#CCN(Cc1c(C)[nH]c2nc(N)nc(O)c12)c1ccc(C(=O)N[C@H](CCC(=O)O)C(=O)O)cc1 |
| – | – | 180 µM | 180 µM | Cc1[nH]c2nc(N)nc(O)c2c1CNc1ccc(C(=O)N[C@H](CCC(=O)O)C(=O)O)cc1 |

| Structure (SMILES) | IC50 (Thymidylate synthase [1]) | IC50 (Thymidylate synthase [2]) | IC50 (Thymidylate synthase [3]) | IC50 (Thymidylate synthase [4]) |
| --- | --- | --- | --- | --- |
| Cc1[nH]c2nc(N)[nH]c(=O)c2c1Sc1ccc(C(=O)NC(CCC(=O)O)C(=O)O)cc1 (configuration not stated) | 0.021 µM | – | – | – |
